# Measured values as given in patent US8551721B2, “Bioluminescent detection of cyanohydroxy benzothiazole compounds” (Promega Corporation, priority 2008, dated 2013).
# How the values were obtained:
# Format in all cases: biochemical
# UGT 1A1 = target: T1, UGT 1A1 (Homo sapiens, UniProt P22309); experiment: UGT activity: utilization of substrate by recombinant UGT 1A1 Supersomes; settings: 2 hour incubation at 37° C., plus vs minus UDPGA, background corrected
# T1 construct: purchased BD Gentest; host or cells: insect cells (microsomes)
# T1 sequence (P22309 26-533): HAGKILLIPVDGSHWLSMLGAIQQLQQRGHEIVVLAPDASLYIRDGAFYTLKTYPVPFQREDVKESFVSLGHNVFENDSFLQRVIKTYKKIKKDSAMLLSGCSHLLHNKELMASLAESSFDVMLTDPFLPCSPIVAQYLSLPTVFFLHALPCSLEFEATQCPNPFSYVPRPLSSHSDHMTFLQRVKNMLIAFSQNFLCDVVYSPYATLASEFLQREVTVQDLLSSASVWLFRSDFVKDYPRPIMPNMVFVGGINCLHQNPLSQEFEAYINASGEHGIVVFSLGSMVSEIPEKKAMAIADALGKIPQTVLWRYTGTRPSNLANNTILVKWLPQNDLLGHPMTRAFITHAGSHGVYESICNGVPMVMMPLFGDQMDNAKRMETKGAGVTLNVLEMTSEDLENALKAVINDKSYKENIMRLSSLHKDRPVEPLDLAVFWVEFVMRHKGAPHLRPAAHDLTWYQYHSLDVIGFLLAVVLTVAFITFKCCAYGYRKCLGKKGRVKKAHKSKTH
# Method: (§1) The invention includes a method of determining activity of the uridine 5′-diphospho-glucuronosyltransferase (UDP-glucuronosyltransferase, or UGT) family enzymes in vitro. Briefly, UGT enzymes from overexpressed insect microsomes (Supersomes™, BD Gentest™) or animal tissue microsomes (Xenotech, BD Gentest™) were incubated with a cyanobenzothiazole substrate of the invention and the cofactor UDP-glucuronic acid (UDPGA) at 37° C. in buffer at physiological pH containing MgCl2 and alamethicin (typically, 50 mM TES, pH 7.5, 8 mM MgCl2, 4 mM UDPGA (Sigma) and 25 μg/mL alamethicin (Sigma)). Following the UGT enzyme reaction, an equal volume of P450-Glo Luciferin Detection Reagent (Promega) containing 15-30 mM D-cysteine-HCl.H2O (Sigma) was added and the plate was mixed and incubated at room temperature, typically for 20-30 minutes. […]
# (§2) During this incubation, the cysteine reacts with the cyanobenzathiozole substrate to yield a D-luciferin derivative. […] Therefore, activity of the UGT enzyme can be measured by analyzing the difference (lower or no output) in relative light units (RLU) of a sample in which glucuronidation occurs compared to a sample that was run under the same conditions with no added UDPGA cofactor. […]
# (§3) Reactions were assembled in a white 96-well plate. […] After the incubation was completed, the plate was read on a Veritas™ luminometer (Turner BioSystems, Inc.; Sunnyvale, Calif.). […]
# UGT 2B4 = target: T2, UGT 2B4 (Homo sapiens, UniProt P06133); experiment: UGT activity: utilization of substrate by recombinant UGT 2B4 Supersomes; settings: 2 hour incubation at 37° C., plus vs minus UDPGA
# T2 construct: purchased BD Gentest; host or cells: insect cells (microsomes)
# T2 sequence (P06133 24-528): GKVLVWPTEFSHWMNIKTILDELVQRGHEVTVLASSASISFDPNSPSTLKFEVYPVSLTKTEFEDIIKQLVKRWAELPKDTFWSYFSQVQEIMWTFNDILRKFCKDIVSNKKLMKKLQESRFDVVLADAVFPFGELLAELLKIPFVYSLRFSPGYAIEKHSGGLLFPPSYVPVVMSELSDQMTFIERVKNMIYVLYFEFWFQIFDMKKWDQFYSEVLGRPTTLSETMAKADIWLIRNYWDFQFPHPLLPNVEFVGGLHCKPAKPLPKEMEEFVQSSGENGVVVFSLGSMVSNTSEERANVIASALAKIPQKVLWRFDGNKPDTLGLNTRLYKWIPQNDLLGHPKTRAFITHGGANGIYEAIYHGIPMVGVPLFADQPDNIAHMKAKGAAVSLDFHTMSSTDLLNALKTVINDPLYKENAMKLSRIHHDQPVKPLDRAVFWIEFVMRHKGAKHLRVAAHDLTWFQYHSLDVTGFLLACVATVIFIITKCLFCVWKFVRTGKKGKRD
# Method: as §1, §2, §3
# UGT 1A10 = target: T3, UGT 1A10 (Homo sapiens, UniProt Q9HAW8); experiment: UGT activity: utilization of substrate by recombinant UGT 1A10 Supersomes; settings: 2 hour incubation at 37° C., plus vs minus UDPGA, background corrected
# T3 construct: purchased BD Gentest; host or cells: insect cells (microsomes)
# T3 sequence (Q9HAW8 26-530): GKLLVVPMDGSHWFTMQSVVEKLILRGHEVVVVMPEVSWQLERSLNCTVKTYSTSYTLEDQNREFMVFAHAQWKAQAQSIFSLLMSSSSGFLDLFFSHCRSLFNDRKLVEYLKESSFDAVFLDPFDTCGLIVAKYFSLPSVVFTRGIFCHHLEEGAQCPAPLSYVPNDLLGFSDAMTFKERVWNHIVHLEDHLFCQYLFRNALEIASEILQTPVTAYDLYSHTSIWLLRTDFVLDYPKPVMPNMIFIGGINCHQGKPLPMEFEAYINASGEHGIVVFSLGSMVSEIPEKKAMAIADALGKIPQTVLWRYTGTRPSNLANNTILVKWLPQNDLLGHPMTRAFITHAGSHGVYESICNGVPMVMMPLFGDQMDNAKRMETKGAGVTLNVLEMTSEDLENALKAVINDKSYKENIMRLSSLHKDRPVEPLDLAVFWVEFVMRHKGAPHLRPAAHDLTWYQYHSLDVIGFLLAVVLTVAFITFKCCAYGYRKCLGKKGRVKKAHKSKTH
# Method: as §1, §2, §3
Structure (SMILES),% utilization by UGT 1A1 (UGT 1A1),utilization by UGT 2B4 (in words) (UGT 2B4),% utilization by UGT 1A10 (UGT 1A10)
Cc1cc(O)cc2sc(C#N)nc12 [compound 3138],over 50%,did not utilize either compound 3138 or 3478 to an appreciable extent,over 50%
Cc1cc(O)cc2sc(C3=NC(C(=O)O)CS3)nc12 (stereo not drawn) [compound 3478],≤ 15%,did not utilize either compound 3138 or 3478 to an appreciable extent,≤ 15%
